“And” between values parts separate entries of the source, which are not always exact repeats. Identical values can stand only once.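 Interpolation was linear, between the two tested concentrations surrounding the appropriate level; five concentrations were tested over 48 hours in 96-well plates. Abbreviation: GI50, concentration required for 50% inhibition of growth. TGI denotes the concentration required for complete inhibition of growth.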
What was measured:
Experiment in all cases: NCI-60 cell line screen, 48 h
HS 578T breast = test system: HS 578T breast
HT29 colon = test system: HT29 colon
SNB-19 CNS = test system: SNB-19 CNS
OVCAR-4 ovarian = test system: OVCAR-4 ovarian
SF-295 CNS = test system: SF-295 CNS
CAKI-1 renal = test system: CAKI-1 renal
RPMI-8226 leukemia = test system: RPMI-8226 leukemia
PC-3 prostate = test system: PC-3 prostate
HCT-15 colon = test system: HCT-15 colon
786-0 renal = test system: 786-0 renal
SN12C renal = test system: SN12C renal
OVCAR-3 ovarian = test system: OVCAR-3 ovarian
OVCAR-5 ovarian = test system: OVCAR-5 ovarian
ACHN renal = test system: ACHN renal
HCT-116 colon = test system: HCT-116 colon
NCI-H460 lung = test system: NCI-H460 lung
LOX IMVI melanoma = test system: LOX IMVI melanoma
EKVX NSCLC = test system: EKVX NSCLC
T-47D breast = test system: T-47D breast
UACC-257 melanoma = test system: UACC-257 melanoma
NCI/ADR-RES ovarian = test system: NCI/ADR-RES ovarian
HL-60(TB) leukemia = test system: HL-60(TB) leukemia
K-562 leukemia = test system: K-562 leukemia
NCI-H23 lung = test system: NCI-H23 lung
KM12 colon = test system: KM12 colon
MCF7 breast = test system: MCF7 breast
SW-620 colon = test system: SW-620 colon
MDA-N = test system: MDA-N
MDA-MB-435 = test system: MDA-MB-435
DU-145 prostate = test system: DU-145 prostate
MDA-MB-231 breast = test system: MDA-MB-231 breast
HCC-2998 colon = test system: HCC-2998 colon
NCI-H226 lung = test system: NCI-H226 lung
RXF 393 renal = test system: RXF 393 renal
SR leukemia = test system: SR leukemia
NCI-H522 lung = test system: NCI-H522 lung
A498 renal = test system: A498 renal
UACC-62 melanoma = test system: UACC-62 melanoma
SF-268 CNS = test system: SF-268 CNS
MALME-3M melanoma = test system: MALME-3M melanoma
BT-549 breast = test system: BT-549 breast
IGROV1 ovarian = test system: IGROV1 ovarian
SK-MEL-28 melanoma = test system: SK-MEL-28 melanoma
U251 CNS = test system: U251 CNS
HOP-62 NSCLC = test system: HOP-62 NSCLC
MOLT-4 leukemia = test system: MOLT-4 leukemia
SNB-75 CNS = test system: SNB-75 CNS
UO-31 renal = test system: UO-31 renal
OVCAR-8 ovarian = test system: OVCAR-8 ovarian
COLO 205 colon = test system: COLO 205 colon
SK-MEL-2 melanoma = test system: SK-MEL-2 melanoma
TK-10 renal = test system: TK-10 renal
SK-MEL-5 melanoma = test system: SK-MEL-5 melanoma
CCRF-CEM leukemia = test system: CCRF-CEM leukemia
SK-OV-3 ovarian = test system: SK-OV-3 ovarian
SF-539 CNS = test system: SF-539 CNS
A549 NSCLC = test system: A549 NSCLC
M14 melanoma = test system: M14 melanoma
HOP-92 NSCLC = test system: HOP-92 NSCLC

With `Cc1nc2ccc(NC3OC(CO)C(O)C(O)C3O)cc2c(=O)n1-c1ccccc1` (centres undefined) the TGI (HS 578T breast) was over 100 µM, the TGI (HT29 colon) was over 100 µM and the TGI (SNB-19 CNS) was over 100 µM. For the same molecule, the TGI (OVCAR-4 ovarian) was over 100 µM, the TGI (SF-295 CNS) was over 100 µM and the TGI (CAKI-1 renal) was over 100000 nM. It also gave a TGI (RPMI-8226 leukemia) of over 100 µM, a TGI (PC-3 prostate) of over 100 µM and a TGI (HCT-15 colon) of over 100 µM. The TGI (786-0 renal) was over 100 µM, the TGI (SN12C renal) was over 100 µM and the TGI (OVCAR-3 ovarian) was over 100 µM. For the same molecule, the TGI (OVCAR-5 ovarian) was over 100 µM, the TGI (ACHN renal) was over 100 µM and the TGI (HCT-116 colon) was over 100 µM. The TGI (NCI-H460 lung) was over 100 µM, the TGI (LOX IMVI melanoma) was over 100 µM and the TGI (EKVX NSCLC) was over 100 µM. It also gave a TGI (T-47D breast) of over 100 µM, a TGI (UACC-257 melanoma) of over 100 µM and a TGI (NCI/ADR-RES ovarian) of over 100 µM. The TGI (HL-60(TB) leukemia) was over 100 µM, the TGI (K-562 leukemia) was over 100 µM and the TGI (NCI-H23 lung) was over 100 µM. For the same molecule, the TGI (KM12 colon) was over 100 µM, the TGI (MCF7 breast) was over 100000 nM and the TGI (SW-620 colon) was over 100000 nM. The TGI (MDA-N) was over 100 µM, the TGI (MDA-MB-435) was over 100 µM and the TGI (DU-145 prostate) was over 100 µM. For the same molecule, the TGI (MDA-MB-231 breast) was over 100 µM, the TGI (HCC-2998 colon) was over 100 µM and the TGI (NCI-H226 lung) was over 100 µM. The TGI (RXF 393 renal) was over 100 µM, the GI50 (SR leukemia) was 11.1 µM and > 100 µM and the TGI (SR leukemia) was over 100 µM. For the same molecule, the TGI (NCI-H522 lung) was over 100000 nM, the TGI (A498 renal) was over 100 µM and the TGI (UACC-62 melanoma) was over 100 µM. It also gave a TGI (SF-268 CNS) of over 100 µM, a TGI (MALME-3M melanoma) of over 100 µM and a TGI (BT-549 breast) of over 100 µM. For the same molecule, the TGI (IGROV1 ovarian) was over 100 µM, the TGI (SK-MEL-28 melanoma) was over 100 µM and the TGI (U251 CNS) was over 100 µM. For the same molecule, the TGI (HOP-62 NSCLC) was over 100 µM, the TGI (MOLT-4 leukemia) was over 100 µM and the TGI (SNB-75 CNS) was over 100 µM. The TGI (UO-31 renal) was over 100 µM, the TGI (OVCAR-8 ovarian) was over 100 µM and the TGI (COLO 205 colon) was over 100 µM. It also gave a TGI (SK-MEL-2 melanoma) of over 100 µM, a TGI (TK-10 renal) of over 100 µM and a TGI (SK-MEL-5 melanoma) of over 100 µM.

With `Cc1ccc(/C=C2\CCCC(CN(C)C)C2=O)cc1` (centres undefined) the TGI (HS 578T breast) was over 100 µM, the TGI (HT29 colon) was 3.07 µM and the TGI (SNB-19 CNS) was 30.1 µM. For the same molecule, the TGI (OVCAR-4 ovarian) was 3.8 µM, the TGI (SF-295 CNS) was 31.2 µM and the TGI (CAKI-1 renal) was 2880 nM. The TGI (PC-3 prostate) was 8.9 µM, the TGI (HCT-15 colon) was 4.23 µM and the TGI (786-0 renal) was 3.23 µM. For the same molecule, the TGI (SN12C renal) was 3.91 µM, the TGI (CCRF-CEM leukemia) was over 100 µM and the TGI (OVCAR-3 ovarian) was 3.22 µM. For the same molecule, the TGI (OVCAR-5 ovarian) was 29.5 µM, the TGI (ACHN renal) was 7.19 µM and the TGI (HCT-116 colon) was 3.1 µM. For the same molecule, the TGI (NCI-H460 lung) was 13.1 µM, the TGI (LOX IMVI melanoma) was 3.38 µM and the TGI (EKVX NSCLC) was 31.5 µM. For the same molecule, the TGI (T-47D breast) was 3.25 µM, the TGI (SK-OV-3 ovarian) was 26.4 µM and the TGI (UACC-257 melanoma) was 3.99 µM. For the same molecule, the TGI (NCI/ADR-RES ovarian) was 17.1 µM, the TGI (HL-60(TB) leukemia) was over 100 µM and the TGI (K-562 leukemia) was over 100 µM. For the same molecule, the TGI (NCI-H23 lung) was 4.97 µM, the TGI (KM12 colon) was 3.57 µM and the TGI (SF-539 CNS) was 6.61 µM. The TGI (MCF7 breast) was 1920 nM, the TGI (SW-620 colon) was 2880 nM and the TGI (A549 NSCLC) was 30.9 µM. For the same molecule, the TGI (MDA-N) was 3.85 µM, the TGI (MDA-MB-435) was 3.74 µM and the TGI (DU-145 prostate) was 21.9 µM. For the same molecule, the TGI (MDA-MB-231 breast) was 3.08 µM, the TGI (HCC-2998 colon) was 27.4 µM and the TGI (NCI-H226 lung) was 6.82 µM. The TGI (RXF 393 renal) was 3.34 µM, the TGI (M14 melanoma) was 3.31 µM and the TGI (NCI-H522 lung) was 1980 nM. The TGI (A498 renal) was 27.4 µM, the TGI (UACC-62 melanoma) was 5.09 µM and the TGI (MALME-3M melanoma) was 3.77 µM. The TGI (BT-549 breast) was 6.4 µM, the TGI (IGROV1 ovarian) was 4.15 µM and the TGI (SK-MEL-28 melanoma) was 3.9 µM. For the same molecule, the TGI (U251 CNS) was 26.4 µM, the TGI (HOP-62 NSCLC) was 34.7 µM and the TGI (MOLT-4 leukemia) was over 100 µM. The TGI (SNB-75 CNS) was 20.3 µM, the TGI (UO-31 renal) was 3.12 µM and the TGI (COLO 205 colon) was 3.13 µM. The TGI (SK-MEL-2 melanoma) was 15.4 µM, the TGI (HOP-92 NSCLC) was 3.75 µM and the TGI (TK-10 renal) was 8.26 µM. The TGI (SK-MEL-5 melanoma) was 12.5 µM.

From PubChem BioAssay (NCI)
